From patent publication US20260284016A1, “COMBINATIONS AND METHODS FOR ENHANCING CHECKPOINT INHIBITOR THERAPIES IN CANCER TREATMENT” (PURDUE RESEARCH FOUNDATION, priority 2004, published 2026)

Legend:
[1] = system: M2-induced THP-1 macrophages; test: Reprogramming of M2-polarized THP-1 macrophages, marker mRNA by qPCR; type: cell-based, human
Method: THP-1 cells were seeded into 96-well plates at a density of 60,000 cells/well. Cells were differentiated into unpolarized macrophages by 48 hours incubation with 200 nM PMA followed by 24 hours incubation in fresh RPMI medium. […] Cultures were maintained at 37° C., in a humidified 5% CO2 incubator.
Total RNA was isolated from 1×10^5-2×10^5 macrophages using a Quick-RNA™ MicroPrep kit (Zymo Research, Irvine, CA) according to the manufacturer-recommended protocol. The RNA samples were then reverse-transcribed into cDNA using high-capacity cDNA reverse transcription kits (Applied Biosystems, Foster City, CA; #4368814), qPCR analyses were performed using the iTaq™ Universal SYBR Green SuperMix (Bio-Rad Laboratories GmbH, Hercules, CA; #1725121), iCycler thermocycler, and iCycler iQ 3.0 software (Bio-Rad Laboratories GmbH, Hercules, CA) to track the expression of markers characteristic of macrophage polarization states, IL-6, CXCL10, IFNα, IFN-γ and CD86 were used as markers for an M1 phenotype, while CCL18. CD206, CD163 and Arg1 were employed as markers for the M2 phenotype, IL-1β, PDGFβ, MMP9 and TIMP 3 were measured as indicators of an anti-inflammatory phenotype. IRAK-4 was used as an indicator of TLR7 stimulation. To control for specificity of the amplification products, a melting curve analysis was performed. […] Each sample was analyzed independently in triplicate for each marker.
In both data sets, the cells were harvested for gene analysis by qPCR.
Primarily, human monocytic (THP-1) cells were induced to the M2-like phenotype using the methods and materials previously described. In particular, THP-1 cells were seeded into 96-well plates at a density of 60,000 cells/well. Cells were differentiated into unpolarized macrophages by 48 h incubation with 200 nM PMA followed by 24 hours incubation in fresh RPMI medium. The resulting macrophages were polarized to an M2-like phenotype by incubation with […] IL-4, 20 ng/ml […], and 5 ng/mL IL-6 for 48h. Cultures were maintained at 37° C. in a humidified 5% CO2 incubator.
In addition to the nonconjugated TLR7 agonist, conjugated compounds of the present disclosure were likewise evaluated. Human THP-1 cells were induced to macrophages having the M2-like phenotype per the methods set forth herein (e.g., using 20 ng/mL IL-4, 20 ng/mL IL-13, 5 ng/mL IL-6), then reprogrammed with different nM concentrations of various compounds of the present disclosure for 2 hours; namely, a nonconjugated (free drug) TLR7 agonist compound having formula I and/or II (data shown collectively as Compound 3A), a folate-conjugated TLR7 agonist compound having formula XV (having a releasable linker) (e.g., Compound 3B), a folate-conjugated TLR7 agonist compound having formula XVII (having a non-releasable linker) (e.g., Compound 3C), and a folate-conjugated TLR7 agonist compound having formula XVI (having a non-releasable linker) (e.g., Compound 3D). The cells were subsequently harvested for gene analysis by qPCR and the relative expression of CCL18 (FIG. 14A), CD206 (FIG. 14B), and IL-1β (FIG. 14C) analyzed.

[2] = system: M2-induced THP-1 macrophages; test: Secreted CCL18 and IL-1β in THP-1 supernatants by ELISA; type: cell-based, human
Method: FIGS. 6A-6D show graphical data representative of various marker levels measured from M2-induced THP-1 macrophages treated with different concentrations of drugs for 48 hours (FIGS. 6A and 6B) or for 2 hours, then displaced with fresh medium and cultured for the remaining 46 hours (FIGS. 6C and 6D). In both cases, cell supernatants were collected and secreted CCL18 protein and IL-1β was detected by ELISA.
Further, to ensure that the above mRNA analyses accurately reflected the levels of anti-inflammatory cytokines produced by IL-4, IL-6 plus IL-13 stimulated THP-1 cells, the concentrations of CCL18 and IL-1β polypeptides in the THP-1 supernatants were quantitated by ELISA assay.
CCL18 and IL-1β were quantified in induced THP-1 cell supernatants using a human DuoSet ELISA Development System (R&D Systems Europe, Abingdon, UK: #DY394-05) and an IL-1 beta Human ELISA Kit (Thermo Fisher Scientific, Waltham, MA; #BMS224-2) as described by manufactures. BALF samples were analyzed for mouse IFN-γ using ELISA MAX™ Deluxe (Biolegend, San Diego, CA; #430804).
Additionally, cell supernatants were collected and secreted CCL18 protein was detected by ELISA.

[3] = Stability during incubation in culture media; type: physicochemical; details: 37° C. in the culture media, 48 hours
Method: Indeed, Compound 1B retained the original structure after 48 hours incubation.

[4] = system: M2-induced human monocyte-derived macrophages; test: Reprogramming of M2-induced human monocyte-derived macrophages with FA-glucosamine competition; type: cell-based; details: 100 nM, 2+46 hours
Method: Arg1 (FIG. 19A), CD206 (FIG. 19B) and CD163 (FIG. 19C), and protein levels of secreted anti-inflammatory CCL18 (FIG. 19D) and proinflammatory cytokines, CXCL10 (FIG. 19E) and IL-6 (FIG. 19F) (n=3, technical replicates) were then determined. Changes in both sets of cytokines were inhibited by blockade of unoccupied folate receptors with excess FA-glucosamine (2+46 hours, competition).

[5] = system: healthy mice
Method: (FIGS. 20A-C) Measurement of plasma IL-6 (FIG. 20A), IFNα (FIG. 20B) and TNFα (FIG. 20C) (n=3). […] The effect of drug concentration on plasma levels of IL-6 (FIG. 20D), IFNα (FIG. 20E), and TNFα (FIG. 20F) was determined at 1.5 hours, 1 hour, or 1 hour after treatment, respectively (n=2) (FIG. 20G).
The effect of drug on plasma levels of IL-6 (FIG. 23C) and TNFα (FIG. 23D) was determined at 1 hour or 1.5 hours after treatment.

[6] = system: M2-induced THP-1 macrophages; test: Reprogramming of M2-polarized THP-1 macrophages, marker mRNA by qPCR; type: cell-based, human; details: 48 hours incubation, FIGS. 3A-3F, compared with nontargeted Compound 1A
[7] = 2 hours with drug, then drug-free medium
[8] = continuous incubation 48 hours, ELISA

SMILES: CCCCc1nc2c(N)nc3ccccc3c2n1CC(C)(C)OC(=O)OCCSSCC(NC(=O)CCC(NC(=O)c1ccc(NCc2cnc3nc(N)[nH]c(=O)c3n2)cc1)C(=O)O)C(=O)O (centres unmarked) [Compound 1B]
- anti-inflammatory/M2-type markers (CCL18, CD206, IL-1β, PDGFβ mRNA) ([1]; 2 hours incubation, harvested at once or after further 46 hours): downregulated anti-inflammatory/M2-type markers of macrophages more than Compound 1A
- TNFα induction [1, 7]: dramatically improved
- potency in reprogramming [1, 7]: superior potency relative to Compound 1A
- secreted CCL18 polypeptide [2, 8]: reductions
- secreted IL-1β polypeptide [2, 8]: reductions
- reduction of secreted CCL18 and IL-1β, comparison of 1B with 1A ([2]; drug exposure limited to 2 hours, then 46 hours fresh medium): superior
- stability during incubation [3]: remained stable
- downregulation of biomarkers with excess FA-glucosamine (competitor) [4]: blocked
- systemic cytokine release (plasma IL-6, IFNα, TNFα) ([5]; 10 nmol tail vein): does not
- inflammatory cytokine release, dose comparison ([5]; plasma at 1 or 1.5 hours, varied dose): stimulates less inflammatory cytokine release than half the dose of Compound 1A
- M2 to M1 marker changes, magnitude of impact [6]: somewhat reduced
